Reference: patent publication US8614179B2, “Antibacterial combination therapy for the treatment of gram positive bacterial infections” (E-Therapeutics PLC, priority 2008, dated 2013)
Read-outs that look alike come from different tables or passages of the source.

Experiments:
[1] = tested on: Enterococcus faecium (VRE); experiment: microbe, parasite or virus in culture; assay type: cell-based; details: read-out: MIC
Description: (§1) In example experiments miconazole nitrate, econazole nitrate and clotrimazole were dissolved in DMSO. Colistin, D-cycloserine, fosfomycin and polymixin B were dissolved in water. Nisin was suspended at 10 mg/mL in 0.02 M HCl, and the supernatant fraction following centrifugation at 10,000 g for 10 mins was used in the following experiments.
(§2) Other solvents that may be used include caster oil, pyridine, and 0.9% saline. For IV administration agents may be solubilised in polyethoxylated caster oil, or cyclodextrins such as sulfobutylether7-βcyclodextrin or hydroxypropyl-β-cyclodextrin and lactic acid. Minimum inhibitory concentrations (MICs) of a range of clinical and control bacterial organisms were measured according to BSAC (British Society for Antimicrobial Chemotherapy) guidelines (Andrews 2001), for single agents. The method of determining MICs of imidazole with colistin, D-cycloserine, fosfomycin, polymixin B, or nisin is described briefly as follows. MICs were measured by agar dilution. Kill curves were performed in accordance with the methods of Garrison and Nuemiller, 2007. Briefly kill profiles were generated by logarithmically plotting mean CFU/mL data over time. Total logarithmic reductions in bacterial counts were determined by subtracting 24 h CFU/mL values from starting inocula.
(§3) Stock solutions were prepared at concentrations of 1000 mg/L and 100 mg/L. To determine the MIC of miconazole, the appropriate amount of each stock solution were added to separate Petri dishes give a range of final concentrations (after the addition of 20 mL molten agar): from 0.12 to 32 mg/L. To determine the MICs of miconazole with the specific agent active on a bacterial cell surface, these concentrations of miconazole were used in addition to a fixed sub-inhibitory amount of the agent active on a bacterial cell surface. […] Volumes (20 mL) of cooled molten IST agar (oxoid) was added to each Petri dish and mixed by swirling. After drying, the plates were stored at 4° C. and protected from light. Plates were used on the day of preparation.
(§4) The test organisms were grown overnight in 5 mL IST broth. Using a dilution in 0.9% saline of 1:100, the appropriate agar plates were inoculated using a multipoint inoculator.
(§5) Agar plates and microtitre plates were incubated at 37° C. in air for 18-20 hours.
(§6) The MIC is the minimum amount of an antibiotic at which there is no visible growth of bacteria. Tiny single colonies or faint hazes were not counted as growth. Synergy was reported if the inhibitory effect of the drugs in combination were greater than the sum of the inhibitory effects of each drug singly. The concentration of miconazole, with or without the cell membrane or cell wall active agent, capable of inhibiting the growth of 50% and 90% of the strains tested is reported as the MIC50 and MIC90 respectively. The range of MICs for each group of bacterial strains is also reported.

VISA = experiment: microbe, parasite or virus in culture; assay type: cell-based; details: Staphylococcus aureus, read-out: MIC
Description: as §1, §2, §3, §4, §5, §6

Clc1ccc(COC(Cn2ccnc2)c2ccc(Cl)cc2Cl)c(Cl)c1 (centres unmarked) [Miconazole, 1-[2-(2,4-Dichlorophenyl)-2-[(2,4-dichlorophenyl)methoxy]ethyl]-1H-imidazole]
MIC ([1]; ATCC 7171 / VRE, Table 4, strain E. faecium ATCC 7171, agents singly or miconazole MIC with 2.5 mg/L nisin): 0.5 µg/mL | MIC ([1]; VRE, Table 4, strain E15 VanAATCC4147 E. faecium, agents singly or miconazole MIC with 2.5 mg/L nisin): 2 µg/mL | MIC ([1]; VRE, Table 4, strain E. faecium VanR B145344C LFE, agents singly or miconazole MIC with 2.5 mg/L nisin): 4 µg/mL | MIC (VISA; Table 4, strain Mu3ex Japan, agents singly or miconazole MIC with 2.5 mg/L nisin): 2 µg/mL | MIC (VISA; Table 4, strain Mu50ex Japan, agents singly or miconazole MIC with 2.5 mg/L nisin): 1 µg/mL | MIC (VISA; Table 4, strain USA/VISA 5827, agents singly or miconazole MIC with 2.5 mg/L nisin): 2 µg/mL | MIC (VISA; Table 4, strain USA/VISA 5836, agents singly or miconazole MIC with 2.5 mg/L nisin): 4 µg/mL | MIC (VISA; Table 4, strain VISA 3900 UK, agents singly or miconazole MIC with 2.5 mg/L nisin): 2 µg/mL
